Measurements: patent publication US11040981B2, “Pyrrolotriazine compounds and methods of inhibiting TAM kinases” (Syros Pharmaceuticals, Inc., priority 2017, dated 2021)

Key:
AXL = biological target: T1, AXL (Homo sapiens, UniProt P30530); assay: TR-FRET kinase activity assay, AXL; assay type: biochemical; details: ATP at Km, 60 minutes
T1 sequence (P30530 26-894): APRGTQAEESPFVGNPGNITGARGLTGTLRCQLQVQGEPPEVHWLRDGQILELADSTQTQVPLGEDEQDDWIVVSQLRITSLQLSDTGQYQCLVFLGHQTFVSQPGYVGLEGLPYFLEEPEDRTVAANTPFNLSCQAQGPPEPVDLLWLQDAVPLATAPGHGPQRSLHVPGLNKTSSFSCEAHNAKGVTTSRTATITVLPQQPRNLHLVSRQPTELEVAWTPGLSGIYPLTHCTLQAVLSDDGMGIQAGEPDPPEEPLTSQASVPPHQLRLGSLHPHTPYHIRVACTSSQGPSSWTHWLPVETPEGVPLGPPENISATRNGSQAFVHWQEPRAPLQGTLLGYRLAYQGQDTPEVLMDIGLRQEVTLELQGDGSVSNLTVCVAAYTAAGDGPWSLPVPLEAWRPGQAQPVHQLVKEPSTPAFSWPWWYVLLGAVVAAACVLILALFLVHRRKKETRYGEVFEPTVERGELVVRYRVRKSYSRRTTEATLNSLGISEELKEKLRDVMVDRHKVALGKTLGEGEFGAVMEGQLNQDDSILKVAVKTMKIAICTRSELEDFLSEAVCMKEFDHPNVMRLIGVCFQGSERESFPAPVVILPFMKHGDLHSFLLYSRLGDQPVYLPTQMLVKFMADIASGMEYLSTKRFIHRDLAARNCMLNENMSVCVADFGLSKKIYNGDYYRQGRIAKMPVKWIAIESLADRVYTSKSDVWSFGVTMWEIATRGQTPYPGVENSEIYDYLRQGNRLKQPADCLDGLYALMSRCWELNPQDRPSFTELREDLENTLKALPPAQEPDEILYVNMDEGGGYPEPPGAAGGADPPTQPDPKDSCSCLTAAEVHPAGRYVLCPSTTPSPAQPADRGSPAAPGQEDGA
Outline: (§1)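 Enzyme + labelled peptide + cpd premixed; ATP at per-enzyme Km starts rxn. 60 min RT, HEPES pH 7.5/MgCl2/EGTA/Brij 35/DTT buffer. Stop 12.5 mM EDTA, Eu phospho-Ab 30 min dark, TR-FRET read → IC50.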

MERTK = biological target: T2, MERTK (Homo sapiens, UniProt Q12866); assay: TR-FRET kinase activity assay, MERTK; assay type: biochemical; details: for IC50: TR-FRET activity assay, ATP at Km, 60 minutes, read-out: Mer IC50; for FLT3/Mer ratio (FLT3 IC50/Mer IC50): ratio of Mer to FLT3: FLT3 IC50/Mer IC50
T2 sequence (Q12866 21-999): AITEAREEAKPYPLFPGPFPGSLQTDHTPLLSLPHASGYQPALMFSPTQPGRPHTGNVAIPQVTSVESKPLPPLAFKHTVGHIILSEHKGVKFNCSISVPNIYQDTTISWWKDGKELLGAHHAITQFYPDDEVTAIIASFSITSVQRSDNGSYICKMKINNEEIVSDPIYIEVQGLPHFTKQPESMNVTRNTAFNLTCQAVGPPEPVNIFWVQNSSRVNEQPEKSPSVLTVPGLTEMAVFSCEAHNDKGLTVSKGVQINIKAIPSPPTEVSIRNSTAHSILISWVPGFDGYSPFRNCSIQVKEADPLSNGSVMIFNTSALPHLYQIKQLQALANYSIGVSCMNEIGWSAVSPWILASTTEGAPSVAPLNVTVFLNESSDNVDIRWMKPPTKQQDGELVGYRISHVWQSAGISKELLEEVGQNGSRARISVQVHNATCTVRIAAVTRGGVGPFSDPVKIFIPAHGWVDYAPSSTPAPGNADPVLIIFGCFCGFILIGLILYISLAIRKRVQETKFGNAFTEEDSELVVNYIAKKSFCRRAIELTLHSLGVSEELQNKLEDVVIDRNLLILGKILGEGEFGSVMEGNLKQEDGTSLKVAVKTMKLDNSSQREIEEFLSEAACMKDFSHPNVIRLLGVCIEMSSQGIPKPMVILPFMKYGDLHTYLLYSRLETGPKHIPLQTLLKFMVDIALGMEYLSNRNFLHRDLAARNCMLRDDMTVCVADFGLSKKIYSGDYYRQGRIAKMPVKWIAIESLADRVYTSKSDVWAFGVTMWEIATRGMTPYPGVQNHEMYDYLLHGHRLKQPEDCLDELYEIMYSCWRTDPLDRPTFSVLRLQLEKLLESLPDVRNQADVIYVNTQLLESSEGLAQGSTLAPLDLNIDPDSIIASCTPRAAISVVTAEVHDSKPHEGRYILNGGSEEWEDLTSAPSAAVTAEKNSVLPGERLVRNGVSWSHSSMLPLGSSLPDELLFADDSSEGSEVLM
Outline: as §1

Structure (SMILES) | IC50 (AXL) [µM] | IC50 (MERTK) [µM] | FLT3/Mer ratio (FLT3 IC50/Mer IC50) (MERTK)
C[C@@H](CC(F)(F)F)Nc1ncc2c(-c3cncc(C(=O)N(C)C)c3)cc([C@H]3CC[C@H](O)CC3)n2n1 [Compound 310] | ≤ 0.1 | ≤ 0.1 | +++ (“+++” represents a ratio of >100)
Cc1cc(-c2cc([C@H]3CC[C@H](O)CC3)n3nc(N[C@@H](C)COC(F)F)ncc23)ccn1 [Compound 313] | ≤ 0.1 | ≤ 0.1 | +++ (“+++” represents a ratio of >100)
COC[C@H](C)Nc1ncc2c(-c3ccc(CN4CCOCC4)cc3)cc([C@H]3CC[C@H](NS(C)(=O)=O)CC3)n2n1 [Compound 301] | ≤ 0.1 | ≤ 0.1 | +++ (“+++” represents a ratio of >100)
COC[C@H](C)Nc1ncc2c(-c3ccnc(OC4CCCN(C)C4)c3)cc([C@H]3CC[C@H](O)CC3)n2n1 (stereo partly drawn) [Compound 341] | ≤ 0.1 | ≤ 0.1 | +++ (“+++” represents a ratio of >100)
C[C@@H](CC(F)(F)F)Nc1ncc2c(-c3cnn([C@H]4CCOC4)c3)cc([C@H]3CC[C@H](O)CC3)n2n1 [Compound 290] | ≤ 0.1 | ≤ 0.1 | ++ (“++” represents a ratio of between 10 and 100)
COC[C@H](C)Nc1ncc2c(-c3ccnc(N4CCN(S(C)(=O)=O)CC4)c3)cc([C@H]3CC[C@H](O)CC3)n2n1 [Compound 338] | ≤ 0.1 | ≤ 0.1 | +++ (“+++” represents a ratio of >100)
CC(CC(F)(F)F)Nc1ncc2c(-c3cnc(C(=O)O)nc3)cc(C3CCC(O)CC3)n2n1 (stereo not drawn) [Compound 299] | ≤ 0.1 | ≤ 0.1 | +++ (“+++” represents a ratio of >100)
COC[C@H](C)Nc1ncc2c(-c3cnn(C4CN(C(=O)C5COC5)C4)c3)cc([C@H]3CC[C@H](O)CC3)n2n1 [Compound 293] | ≤ 0.1 | ≤ 0.1 | +++ (“+++” represents a ratio of >100)
COC[C@H](C)Nc1ncc2c(-c3ccnc(N4CCN(C(C)=O)CC4)c3)cc([C@H]3CC[C@H](O)CC3)n2n1 [Compound 344] | ≤ 0.1 | ≤ 0.1 | +++ (“+++” represents a ratio of >100)
COC[C@H](C)Nc1ncc2c(-c3cnn(C(C)(C)C(=O)N4C[C@H]5CC[C@@H](C4)O5)c3)cc([C@H]3CC[C@H](O)CC3)n2n1 [Compound 327] | ≤ 0.1 | ≤ 0.1 | +++ (“+++” represents a ratio of >100)
COC[C@H](C)Nc1ncc2c(-c3cnn(C(C)(C)C(=O)N4CCC5(COC5)C4)c3)cc([C@H]3CC[C@H](O)CC3)n2n1 [Compound 318] | ≤ 0.1 | ≤ 0.1 | +++ (“+++” represents a ratio of >100)
COC[C@H](C)Nc1ncc2c(-c3ccnc(C)c3)cc(C3CCC4(CC3)NC(=O)NC4=O)n2n1 (mixture of isomers) [Compound 325, (S)-8-(2-((1-methoxypropan-2-yl)amino)-5-(2-methylpyridin-4-yl)pyrrolo[2,1-f][1,2,4]triazin-7-yl)-1,3-diazaspiro[4.5]decane-2,4-dione] | ≤ 0.1 | ≤ 0.1 | +++ (“+++” represents a ratio of >100)
Cc1nnc(Cn2cc(-c3cc([C@H]4CC[C@H](O)CC4)n4nc(N[C@@H](C)CC(F)(F)F)ncc34)cn2)o1 [Compound 296] | ≤ 0.1 | ≤ 0.1 | ++ (“++” represents a ratio of between 10 and 100)
COC[C@H](C)Nc1ncc2c(-c3cnn(C4CN(C(=O)C5(C(F)(F)F)CC5)C4)c3)cc([C@H]3CC[C@H](O)CC3)n2n1 [Compound 294] | ≤ 0.1 | ≤ 0.1 | +++ (“+++” represents a ratio of >100)
CCCCC[C@H](C)Nc1ncc2c(C3=CC[C@@H](C(=O)N4CCOCC4)CC3)cc([C@H]3CC[C@H](O)CC3)n2n1 [Compound 113] | ≤ 0.1 | ≤ 0.1 | ++ (“++” represents a ratio of between 10 and 100)

Next, values leading:

IC50 (AXL) [µM] | IC50 (MERTK) [µM] | FLT3/Mer ratio (FLT3 IC50/Mer IC50) (MERTK) | Structure (SMILES)
≤ 0.1 | ≤ 0.1 | +++ (“+++” represents a ratio of >100) | COC[C@H](C)Nc1ncc2c(-c3ccc(S(C)(=O)=O)nc3)cc([C@H]3CC[C@H](O)CC3)n2n1 [Compound 279]
≤ 0.1 | ≤ 0.1 | +++ (“+++” represents a ratio of >100) | COCC(C)Nc1ncc2c(-c3cnn(Cc4ccc(=O)n(C)c4)c3)cc(C3CCC(O)CC3)n2n1 (stereo not drawn) [Compound 322]
≤ 0.1 | ≤ 0.1 | +++ (“+++” represents a ratio of >100) | COC[C@H](C)Nc1ncc2c(-c3cnn(Cc4noc(C)n4)c3)cc([C@H]3CC[C@H](O)CC3)n2n1 [Compound 285]
≤ 0.1 | ≤ 0.1 | +++ (“+++” represents a ratio of >100) | COC[C@H](C)Nc1ncc2c(-c3cnn(C4CC(S(C)(=O)=O)C4)c3)cc([C@H]3CC[C@H](O)CC3)n2n1 (stereo partly drawn) [Compound 287]
≤ 0.1 | ≤ 0.1 | +++ (“+++” represents a ratio of >100) | CNS(=O)(=O)c1ccc(-c2cc([C@H]3CC[C@H](O)CC3)n3nc(N[C@@H](C)COC)ncc23)cn1 [Compound 336]
≤ 0.1 | ≤ 0.1 | +++ (“+++” represents a ratio of >100) | COC[C@H](C)Nc1ncc2c(-c3cnn(Cc4cc(C)nn4C)c3)cc([C@H]3CC[C@H](O)CC3)n2n1 [Compound 333]
≤ 0.1 | ≤ 0.1 | +++ (“+++” represents a ratio of >100) | COC[C@H](C)Nc1ncc2c(-c3ccnc(N4CCCC4)c3)cc([C@H]3CC[C@H](O)CC3)n2n1 [Compound 339]
0.1 to 1 | ≤ 0.1 | +++ (“+++” represents a ratio of >100) | COC[C@H](C)Nc1ncc2c(-c3cc(C)nc(C)c3)cc([C@H]3CC[C@H](O)CC3)n2n1 [Compound 308]
≤ 0.1 | ≤ 0.1 | +++ (“+++” represents a ratio of >100) | COC[C@H](C)Nc1ncc2c(-c3cnn(C4CN(CCC(F)(F)F)C4)c3)cc([C@H]3CC[C@H](O)CC3)n2n1 [Compound 291]
≤ 0.1 | ≤ 0.1 | +++ (“+++” represents a ratio of >100) | COC[C@H](C)Nc1ncc2c(-c3ccnc(OC(C)C)c3)cc([C@H]3CC[C@H](O)CC3)n2n1 [Compound 343]
≤ 0.1 | ≤ 0.1 | +++ (“+++” represents a ratio of >100) | CNC(=O)c1ccc(-c2cc([C@H]3CC[C@H](O)CC3)n3nc(N[C@@H](C)COC)ncc23)cn1 [Compound 317]
≤ 0.1 | ≤ 0.1 | +++ (“+++” represents a ratio of >100) | COC[C@H](C)Nc1ncc2c(-c3cnn([C@@H]4CCNC4=O)c3)cc([C@H]3CC[C@H](O)CC3)n2n1 [Compound 315]
